Consider 19 molecules from patent publication US20240116988A1, “ANTI-ROR1 MACROCYCLIC PEPTIDES AND COMPOSITIONS” (BRISTOL-MYERS SQUIBB COMPANY, priority 2022, published 2024).

Positions of bridges follow the written chain, without caps; N, C: chain ends. Non-standard residues stand in square brackets, D forms with d. Residues, ends and D or L forms follow the SMILES beside them. ξ: configuration not given here. 2Nal = N[C@@H](Cc1ccc2ccccc2c1)C(=O)O; NMeF = CN[C@@H](Cc1ccccc1)C(=O)O; PEG3 = NCCOCCOCCOCCC(=O)O; ξL = CC(C)CC(N)C(=O)O

The assay concerns the target T1, human ROR1 (Homo sapiens, UniProt Q01973).
T1 construct: host or cells: HEK 293T cells, Tet-on system induced with doxycycline
Put plainly: ROR1 high content cell-based binding assay. The conditions noted are these: read-out: ROR1 Binding 293T Human HC Cell Based Assay IC50. In short, it runs like this: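 Doxycycline-induced 293T cells expressing human ROR1, seeded overnight, were treated with compound plus 5-FAM-labeled ROR1-binding probe peptide (30 nM final) for 1 h at 37 °C. After washing and formaldehyde/Hoechst fixation, cell-bound probe fluorescence was read by high-content imaging.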

T1 sequence (Q01973 30-937): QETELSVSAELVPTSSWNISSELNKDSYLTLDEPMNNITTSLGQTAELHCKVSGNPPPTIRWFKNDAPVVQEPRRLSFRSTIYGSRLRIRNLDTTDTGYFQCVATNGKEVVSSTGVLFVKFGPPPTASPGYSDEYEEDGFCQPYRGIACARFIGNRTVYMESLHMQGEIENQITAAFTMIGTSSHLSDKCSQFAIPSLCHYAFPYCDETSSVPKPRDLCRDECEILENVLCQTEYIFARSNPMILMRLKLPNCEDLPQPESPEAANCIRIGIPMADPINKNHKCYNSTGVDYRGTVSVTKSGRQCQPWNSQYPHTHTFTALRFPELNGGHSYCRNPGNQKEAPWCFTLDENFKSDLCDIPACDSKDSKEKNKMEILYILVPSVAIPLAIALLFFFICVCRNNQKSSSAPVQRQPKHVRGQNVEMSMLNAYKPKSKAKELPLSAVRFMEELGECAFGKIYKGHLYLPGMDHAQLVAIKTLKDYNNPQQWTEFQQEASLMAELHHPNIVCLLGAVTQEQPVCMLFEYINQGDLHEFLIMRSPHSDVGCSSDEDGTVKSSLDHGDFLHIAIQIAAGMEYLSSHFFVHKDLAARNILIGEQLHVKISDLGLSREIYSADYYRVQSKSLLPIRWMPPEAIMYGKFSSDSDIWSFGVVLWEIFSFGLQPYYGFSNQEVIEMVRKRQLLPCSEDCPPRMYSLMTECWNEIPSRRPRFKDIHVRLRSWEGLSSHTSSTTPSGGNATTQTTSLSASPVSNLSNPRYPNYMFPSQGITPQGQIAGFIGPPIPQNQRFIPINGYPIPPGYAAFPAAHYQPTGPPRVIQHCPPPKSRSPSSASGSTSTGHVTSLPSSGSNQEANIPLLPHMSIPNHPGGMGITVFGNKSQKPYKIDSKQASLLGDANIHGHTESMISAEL

For orientation: IC50 means the midpoint of a concentration-inhibition curve. In the case of `CC(C)C[C@@H]1NC(=O)[C@H](Cc2c[nH]c3ccccc23)NC(=O)[C@H](C(C)C)NC(=O)CNC(=O)[C@H](CO)NC(=O)[C@H](Cc2ccccc2)N(C)C(=O)[C@H](Cc2ccc(O)cc2)NC(=O)[C@H](Cc2ccc(O)cc2)NC(=O)[C@@H](Cc2ccccc2)NC(=O)CSC[C@@H](C(=O)NCC(N)=O)NC(=O)[C@H](C(C)C)NC(=O)[C@H](Cc2ccc(O)cc2)NC1=O` [Example 1000] ({CH2CO}-[dF]YY[NMeF]SGVWLYVCG-NH2; thioether N-12), the IC50 turned out to be 11 nM. The same measure for `CC(C)C[C@@H]1NC(=O)[C@H](CC(C)C)NC(=O)[C@H](Cc2ccccc2)N(C)C(=O)CNC(=O)[C@H](Cc2ccc(O)cc2)NC(=O)[C@H](Cc2ccccc2)NC(=O)CSC[C@@H](C(N)=O)NC(=O)[C@H](Cc2c[nH]c3ccccc23)NC(=O)[C@H](Cc2ccc(O)cc2)NC1=O` [Example 1106] ({CH2CO}-FYG[NMeF]LLYWC-NH2; thioether N-9): 483 nM; for `CC(C)C[C@@H]1NC(=O)[C@H](Cc2ccc(O)cc2)NC(=O)[C@H](Cc2ccccc2)NC(=O)CSC[C@@H](C(=O)NCC(N)=O)NC(=O)[C@H](CC(C)C)NC(=O)[C@H](Cc2ccccc2)N(C)C(=O)[C@H](C)NC(=O)[C@H](Cc2c[nH]c3ccccc23)NC(=O)CNC(=O)[C@H](CO)NC(=O)[C@H](Cc2ccc(O)cc2)NC(=O)[C@H](C(C)C)NC1=O` [Example 1039] ({CH2CO}-FYLVYSGWA[NMeF]LCG-NH2; thioether N-12): 681 nM. The value for `CC(C)C[C@@H]1NC(=O)CNC(=O)[C@H](Cc2ccccc2)N(C)C(=O)CNC(=O)[C@H](Cc2ccc(O)cc2)NC(=O)[C@H](Cc2ccccc2)NC(=O)CSC[C@@H](C(N)=O)NC(=O)[C@H](Cc2c[nH]c3ccccc23)NC(=O)[C@H](Cc2ccc(O)cc2)NC1=O` [Example 1105] ({CH2CO}-FYG[NMeF]GLYWC-NH2; thioether N-9) was 675 nM; that for `CC[C@H](C)[C@@H]1NC(=O)[C@H](Cc2ccccc2)NC(=O)CSC[C@@H](C(=O)NCC(N)=O)NC(=O)[C@H](C)NC(=O)[C@H](Cc2ccccc2)NC(=O)[C@H](Cc2ccc(O)cc2)NC(=O)[C@H](Cc2c[nH]c3ccccc23)NC(=O)CNC(=O)[C@H](CCC(=O)O)NC(=O)[C@H](Cc2ccc(O)cc2)NC(=O)[C@H](C(C)C)NC(=O)[C@H](Cc2c[nH]c3ccccc23)NC1=O` [Example 1008] ({CH2CO}-FIWVYEGWYFACG-NH2; thioether N-12) was 36 nM. Take `CC(C)C[C@@H]1NC(=O)[C@H](Cc2ccc(O)cc2)NC(=O)[C@H](Cc2ccccc2)NC(=O)CSC[C@@H](C(=O)NCC(N)=O)NC(=O)[C@H](CC(C)C)NC(=O)[C@H](Cc2ccccc2)N(C)C(=O)[C@H](Cc2ccc(O)cc2)NC(=O)[C@H](Cc2c[nH]c3ccccc23)NC(=O)CNC(=O)[C@H](CO)NC(=O)[C@H](C)NC(=O)[C@H](C(C)C)NC1=O` [Example 1027] ({CH2CO}-FYLVASGWY[NMeF]LCG-NH2; thioether N-12): the IC50 is 870 nM. Regarding `CC(C)C[C@@H]1NC(=O)[C@H](Cc2ccc(O)cc2)NC(=O)[C@H](Cc2ccccc2)NC(=O)CSC[C@@H](C(=O)NCC(N)=O)NC(=O)[C@H](CC(C)C)NC(=O)[C@H](Cc2ccccc2)N(C)C(=O)[C@H](Cc2ccc(O)cc2)NC(=O)[C@H](Cc2c[nH]c3ccccc23)NC(=O)CNC(=O)[C@H](C)NC(=O)[C@H](Cc2ccc(O)cc2)NC(=O)[C@H](C(C)C)NC1=O` [Example 1020] ({CH2CO}-FYLVYAGWY[NMeF]LCG-NH2; thioether N-12), the IC50 was determined as 18 nM. Regarding `CC(C)C[C@@H]1NC(=O)[C@H](Cc2ccc(O)cc2)NC(=O)[C@H](Cc2ccccc2)NC(=O)CSC[C@@H](C(=O)NCC(N)=O)NC(=O)[C@H](CC(C)C)NC(=O)[C@H](Cc2ccccc2)N(C)C(=O)[C@H](Cc2ccc(O)cc2)NC(=O)[C@H](Cc2c[nH]c3ccccc23)NC(=O)[C@H](C)NC(=O)[C@H](CO)NC(=O)[C@H](Cc2ccc(O)cc2)NC(=O)[C@H](C(C)C)NC1=O` [Example 1071] ({CH2CO}-FYLVYSAWY[NMeF]LCG-NH2; thioether N-12), the IC50 was 72 nM. Consider `CC(C)C[C@@H]1NC(=O)[C@H](Cc2ccc(O)cc2)NC(=O)[C@H](Cc2ccccc2)NC(=O)CSC[C@@H](C(=O)NCC(N)=O)NC(=O)[C@H](CC(C)C)NC(=O)[C@H](Cc2ccccc2)N(C)C(=O)[C@H](Cc2ccc(O)cc2)NC(=O)[C@H](Cc2c[nH]c3ccccc23)NC(=O)CNC(=O)[C@H](CO)NC(=O)[C@H](Cc2ccccc2)NC(=O)[C@H](C(C)C)NC1=O` [Example 1035] ({CH2CO}-FYLVFSGWY[NMeF]LCG-NH2; thioether N-12), for which the IC50 came to 59 nM.

For the molecule `CC(C)C[C@@H]1NC(=O)[C@H](Cc2ccc(O)cc2)NC(=O)[C@H](Cc2ccc3ccccc3c2)NC(=O)CSC[C@@H](C(=O)NCC(N)=O)NC(=O)[C@H](CC(C)C)NC(=O)[C@H](Cc2ccccc2)N(C)C(=O)[C@H](Cc2ccc(O)cc2)NC(=O)[C@H](Cc2c[nH]c3ccccc23)NC(=O)CNC(=O)[C@H](CO)NC(=O)[C@H](Cc2ccc(O)cc2)NC(=O)[C@H](C(C)C)NC1=O` [Example 1092] ({CH2CO}-[2Nal]YLVYSGWY[NMeF]LCG-NH2; thioether N-12), the IC50 came to 43 nM. Turning to `CC(C)C[C@@H]1NC(=O)[C@H](Cc2ccccc2)NC(=O)CSC[C@@H](C(=O)NCC(N)=O)NC(=O)[C@H](C)NC(=O)[C@H](Cc2c[nH]c3ccccc23)NC(=O)[C@H](Cc2ccc(O)cc2)NC(=O)[C@H](Cc2c[nH]c3ccccc23)NC(=O)[C@H](Cc2c[nH]c3ccccc23)NC(=O)[C@H](CCC(=O)O)NC(=O)[C@H](Cc2ccc(O)cc2)NC(=O)[C@H](C(C)C)NC(=O)[C@H](Cc2c[nH]c3ccccc23)NC1=O` [Example 1013] ({CH2CO}-FLWVYEWWYWACG-NH2; thioether N-12), the IC50 turned out to be 637 nM. The same measure for `CC(C)C[C@@H]1NC(=O)[C@H](Cc2ccc(O)cc2)NC(=O)[C@H](Cc2ccccc2)NC(=O)CSC[C@@H](C(=O)NCC(N)=O)NC(=O)[C@H](CC(C)C)NC(=O)[C@H](Cc2ccccc2)N(C)C(=O)[C@H](Cc2ccc(O)cc2)NC(=O)[C@H](Cc2c[nH]c3ccccc23)NC(=O)CNC(=O)[C@H](CO)NC(=O)[C@@H](C)NC(=O)[C@H](C(C)C)NC1=O` [Example 1060] ({CH2CO}-FYLV[dA]SGWY[NMeF]LCG-NH2; thioether N-12): 30 nM; for `CC(C)C[C@@H]1NC(=O)[C@H](Cc2ccc(O)cc2)NC(=O)[C@H](Cc2ccccc2)NC(=O)CSC[C@@H](C(=O)NCC(N)=O)NC(=O)[C@H](CC(C)C)NC(=O)[C@H](Cc2ccccc2)N(C)C(=O)[C@H](Cc2ccc(O)cc2)NC(=O)[C@H](Cc2c[nH]c3ccccc23)NC(=O)CNC(=O)[C@H](CO)NC(=O)[C@H](Cc2ccc(O)cc2)NC(=O)[C@H](C)NC1=O` [Example 1041] ({CH2CO}-FYLAYSGWY[NMeF]LCG-NH2; thioether N-12): 12 nM; for `CC(C)C[C@@H]1NC(=O)[C@H](Cc2ccc(O)cc2)NC(=O)[C@@H]2CCCN2C(=O)CSC[C@@H](C(=O)NCC(N)=O)NC(=O)[C@H](CC(C)C)NC(=O)[C@H](Cc2ccccc2)N(C)C(=O)[C@H](Cc2ccc(O)cc2)NC(=O)[C@H](Cc2c[nH]c3ccccc23)NC(=O)CNC(=O)[C@H](CO)NC(=O)[C@H](Cc2ccc(O)cc2)NC(=O)[C@H](C(C)C)NC1=O` [Example 1067] ({CH2CO}-PYLVYSGWY[NMeF]LCG-NH2; thioether N-12): 515 nM. The same measure for `CC(C)C[C@@H]1NC(=O)[C@H](Cc2ccc(O)cc2)NC(=O)[C@H](Cc2ccccc2)NC(=O)CSC[C@@H](C(=O)NCCOCCOCCOCCC(=O)N[C@@H](CCCCN)C(N)=O)NC(=O)[C@H](CC(C)C)NC(=O)[C@H](Cc2ccccc2)N(C)C(=O)[C@H](Cc2ccc(O)cc2)NC(=O)[C@H](Cc2c[nH]c3ccccc23)NC(=O)CNC(=O)[C@H](CO)NC(=O)[C@H](Cc2ccc(O)cc2)NC(=O)[C@H](C(C)C)NC1=O` [Example 1085] ({CH2CO}-FYLVYSGWY[NMeF]LC[PEG3]K-NH2; thioether N-12): 18 nM.

As to `CC(C)C[C@@H]1NC(=O)[C@H](Cc2ccccc2)NC(=O)[C@H](Cc2ccc(O)cc2)NC(=O)[C@H](Cc2c[nH]c3ccccc23)NC(=O)CNC(=O)[C@H](CO)NC(=O)[C@H](Cc2ccc(O)cc2)NC(=O)[C@H](C(C)C)NC(=O)[C@H](CC(C)C)NC(=O)[C@H](Cc2ccc(O)cc2)NC(=O)[C@H](Cc2ccccc2)NC(=O)CSC[C@@H](C(=O)NCC(N)=O)NC1=O` [Example 1070] ({CH2CO}-FYLVYSGWYFLCG-NH2; thioether N-12), the IC50 is 65 nM. The same measure for `CC(C)C[C@@H]1NC(=O)[C@H](Cc2c[nH]c3ccccc23)NC(=O)[C@H](Cc2ccccc2)NC(=O)[C@H](Cc2c[nH]c3ccccc23)NC(=O)CNC(=O)[C@H](CO)NC(=O)[C@H](Cc2ccc(O)cc2)NC(=O)[C@H](C(C)C)NC(=O)[C@H](CCCNC(=N)N)NC(=O)[C@H](Cc2ccccc2)NC(=O)[C@H](Cc2ccccc2)NC(=O)CSC[C@@H](C(=O)NCC(N)=O)NC1=O` [Example 1006] ({CH2CO}-FFRVYSGWFWLCG-NH2; thioether N-12): 147 nM; for `CC(C)C[C@@H]1NC(=O)[C@H](Cc2ccc(O)cc2)NC(=O)[C@H](C(C)C)NC(=O)[C@H](CC(C)C)NC(=O)[C@H](Cc2ccc(O)cc2)NC(=O)[C@H](Cc2ccccc2)NC(=O)CSC[C@@H](C(=O)NCC(N)=O)NC(=O)[C@H](CC(C)C)NC(=O)[C@H](Cc2ccccc2)N(C)C(=O)[C@H](Cc2ccc(O)cc2)NC(=O)[C@H](Cc2c[nH]c3ccccc23)NC(=O)CNC1=O` [Example 1044] ({CH2CO}-FYLVYLGWY[NMeF]LCG-NH2; thioether N-12): 38 nM; for `CC(C)CC1NC(=O)[C@H](Cc2ccc(O)cc2)NC(=O)[C@H](C(C)C)NC(=O)CSC[C@@H](C(=O)NCC(N)=O)NC(=O)[C@H](CC(C)C)NC(=O)[C@H](Cc2ccccc2)N(C)C(=O)[C@H](Cc2ccc(O)cc2)NC(=O)[C@H](Cc2c[nH]c3ccccc23)NC(=O)CNC(=O)[C@H](CO)NC(=O)[C@H](Cc2ccc(O)cc2)NC(=O)[C@H](C(C)C)NC1=O` (stereo partly shown) [Example 1074] ({CH2CO}-VY[ξL]VYSGWY[NMeF]LCG-NH2; thioether N-12): 122 nM.
